# Measured values as given in paper PMC9823097, “Dysregulation of PRMT5 in chronic lymphocytic leukemia promotes progression with high risk of Richter’s transformation” (Nature Communications, 2023).
# Values joined by “and” are separate entries in the source; they are usually repeats but may differ in a detail not shown here. Identical values can stand only once. “Also recorded” adds a separate entry of the source.
# Columns and labels:
# [1] = tested on: HG3 cells; test: Cell growth curves over 12 days, HG3; format: cell-based
# Description: Live cells/mL were counted on days 3, 6, 10, and 12. […] The split factor was calculated at indicated time points by dividing the counted cells/mL by 3E5. Cell growth was extrapolated over time by multiplying the subsequent cell count by the previous split factor. Cell growth is plotted as fold change relative to DMSO-treated cells.
# [2] = tested on: Eµ-PRMT5/TCL1 Cd19+Cd5+ spleen cells engrafted into immunocompetent C57/BL6J mice; test: Adoptive transfer of Eµ-PRMT5/TCL1 spleen cells into C57/BL6J mice, treatment study; format: in vivo
# Description: For adoptive transfer, viable Cd19^+Cd5^+ cells (5 × 10^6) from the spleen of an Eµ-PRMT5/TCL1 transgenic mouse with active CLL-like leukemia (>80% circulating in peripheral blood) and palpable splenomegaly were engrafted by tail vein into immunocompetent C57/BL6J female mice. Engrafted mice were randomly assigned to treatment conditions: PRT382 10 mg/kg, EPZ015666 50 mg/kg, or vehicle (0.5% methylcellulose, 0.1% tween) at 1-week post engraftment. All treatments were administered by oral gavage 4 contiguous days per week (Mon-Thurs). Predefined euthanasia criteria for mice in all transgenic colonies and murine transplant models were followed and included lethargy, impaired motility, splenomegaly, enlarged lymph nodes and/or superficial lymphoid tumors greater than 1.6 cm in diameter (or cumulative diameter of 1.6 cm if multiple tumors), decrease in body weight (>20%), ruffled fur, hunched back, failure to nest, and loss of appetite.
# [3] = tested on: HG3 CLL cell line; test: Global symmetric dimethyl arginine (SDMA) western blot, HG3; format: cell-based; details: HG3, EPZ015666 for 72hr
# Description: Proteins extracted from whole-cell lysates were resolved by SDS-PAGE and transferred on nitrocellulose membrane as previously described. CpG685 oligonucleotide was obtained from the OSU Cytogenetics Core Lab. Antibodies used for immunoblots included anti-human PRMT5 (Abcam #ab109451), GAPDH (Millipore Sigma #MAB374), SDMA (Cell Signaling Technology #13222), c-Myc (Cell Signaling Technology #5605S), and β-Actin (Cell Signaling Technology #4967S). Cas9-mediated doxycycline-inducible knockout of PRMT5 utilized a targeted sgRNA (guide sequence: […], PAM: GGG).
structure (smiles),measurement,setting,value
O=C(NC[C@H](O)CN1CCc2ccccc2C1)c1cc(NC2COC2)ncn1 [EPZ015666],Rep 1 Live Cells [Fold Change],"[1]; HG3, 1 nM, day 0",1 Fold Change
same,Rep 2 Live Cells [Fold Change],"[1]; HG3, 1 nM, day 0",1 Fold Change
same,Rep 1 Live Cells [Fold Change],"[1]; HG3, 1 nM, day 3",5.41 Fold Change
same,Rep 2 Live Cells [Fold Change],"[1]; HG3, 1 nM, day 3",6.183 Fold Change
same,Rep 1 Live Cells [Fold Change],"[1]; HG3, 1 nM, day 6",37.87 Fold Change
same,Rep 2 Live Cells [Fold Change],"[1]; HG3, 1 nM, day 6",41.0161 Fold Change
same,Rep 1 Live Cells [Fold Change],"[1]; HG3, 1 nM, day 10",230.663 Fold Change
same,Rep 2 Live Cells [Fold Change],"[1]; HG3, 1 nM, day 10",364.018 Fold Change
same,Rep 1 Live Cells [Fold Change],"[1]; HG3, 1 nM, day 12",1359.37 Fold Change
same,Rep 2 Live Cells [Fold Change],"[1]; HG3, 1 nM, day 12",2238.71 Fold Change
same,Rep 1 Live Cells [Fold Change],"[1]; HG3, 10 nM, day 0",1 Fold Change
same,Rep 2 Live Cells [Fold Change],"[1]; HG3, 10 nM, day 0",1 Fold Change
same,Rep 1 Live Cells [Fold Change],"[1]; HG3, 10 nM, day 3",6.05 Fold Change
same,Rep 2 Live Cells [Fold Change],"[1]; HG3, 10 nM, day 3",5.567 Fold Change
same,Rep 1 Live Cells [Fold Change],"[1]; HG3, 10 nM, day 6",44.77 Fold Change
same,Rep 2 Live Cells [Fold Change],"[1]; HG3, 10 nM, day 6",36.2761 Fold Change
same,Rep 1 Live Cells [Fold Change],"[1]; HG3, 10 nM, day 10",317.46 Fold Change
same,Rep 2 Live Cells [Fold Change],"[1]; HG3, 10 nM, day 10",308.347 Fold Change
same,Rep 1 Live Cells [Fold Change],"[1]; HG3, 10 nM, day 12",1720.21 Fold Change
same,Rep 2 Live Cells [Fold Change],"[1]; HG3, 10 nM, day 12",1505.76 Fold Change
same,Rep 1 Live Cells [Fold Change],"[1]; HG3, 100 nM, day 0",1 Fold Change
same,Rep 2 Live Cells [Fold Change],"[1]; HG3, 100 nM, day 0",1 Fold Change
same,Rep 3 Live Cells [Fold Change],"[1]; HG3, 100 nM, day 0",1 Fold Change
same,Rep 4 Live Cells [Fold Change],"[1]; HG3, 100 nM, day 0",1 Fold Change
same,Rep 1 Live Cells [Fold Change],"[1]; HG3, 100 nM, day 3",5.29 Fold Change
same,Rep 2 Live Cells [Fold Change],"[1]; HG3, 100 nM, day 3",5.42 Fold Change
same,Rep 3 Live Cells [Fold Change],"[1]; HG3, 100 nM, day 3",7.7 Fold Change
same,Rep 4 Live Cells [Fold Change],"[1]; HG3, 100 nM, day 3",8.317 Fold Change
same,Rep 1 Live Cells [Fold Change],"[1]; HG3, 100 nM, day 6",34.2087 Fold Change
same,Rep 2 Live Cells [Fold Change],"[1]; HG3, 100 nM, day 6",34.688 Fold Change
same,Rep 3 Live Cells [Fold Change],"[1]; HG3, 100 nM, day 6",44.4033 Fold Change
same,Rep 4 Live Cells [Fold Change],"[1]; HG3, 100 nM, day 6",58.2167 Fold Change
same,Rep 1 Live Cells [Fold Change],"[1]; HG3, 100 nM, day 10",327.781 Fold Change
same,Rep 2 Live Cells [Fold Change],"[1]; HG3, 100 nM, day 10",304.216 Fold Change
same,Rep 3 Live Cells [Fold Change],"[1]; HG3, 100 nM, day 10",521.739 Fold Change
same,Rep 4 Live Cells [Fold Change],"[1]; HG3, 100 nM, day 10",589.444 Fold Change
same,Rep 1 Live Cells [Fold Change],"[1]; HG3, 100 nM, day 12",1552.37 Fold Change
same,Rep 2 Live Cells [Fold Change],"[1]; HG3, 100 nM, day 12",1763.75 Fold Change
same,Rep 3 Live Cells [Fold Change],"[1]; HG3, 100 nM, day 12",1182.61 Fold Change
same,Rep 4 Live Cells [Fold Change],"[1]; HG3, 100 nM, day 12",2564.08 Fold Change
same,Rep 1 Live Cells [Fold Change],"[1]; HG3, 1 µM, day 0",1 Fold Change
same,Rep 2 Live Cells [Fold Change],"[1]; HG3, 1 µM, day 0",1 Fold Change
same,Rep 3 Live Cells [Fold Change],"[1]; HG3, 1 µM, day 0",1 Fold Change
same,Rep 4 Live Cells [Fold Change],"[1]; HG3, 1 µM, day 0",1 Fold Change
same,Rep 1 Live Cells [Fold Change],"[1]; HG3, 1 µM, day 3",4.22 Fold Change
same,Rep 2 Live Cells [Fold Change],"[1]; HG3, 1 µM, day 3",4.83 Fold Change
same,Rep 3 Live Cells [Fold Change],"[1]; HG3, 1 µM, day 3",7.35 Fold Change
same,Rep 4 Live Cells [Fold Change],"[1]; HG3, 1 µM, day 3",8.167 Fold Change
same,Rep 1 Live Cells [Fold Change],"[1]; HG3, 1 µM, day 6",27.219 Fold Change
same,Rep 2 Live Cells [Fold Change],"[1]; HG3, 1 µM, day 6",35.0658 Fold Change
same,Rep 3 Live Cells [Fold Change],"[1]; HG3, 1 µM, day 6",34.79 Fold Change
same,Rep 4 Live Cells [Fold Change],"[1]; HG3, 1 µM, day 6",45.4611 Fold Change
same,Rep 1 Live Cells [Fold Change],"[1]; HG3, 1 µM, day 10",173.707 Fold Change
same,Rep 2 Live Cells [Fold Change],"[1]; HG3, 1 µM, day 10",145.701 Fold Change
same,Rep 3 Live Cells [Fold Change],"[1]; HG3, 1 µM, day 10",233.093 Fold Change
same,Rep 4 Live Cells [Fold Change],"[1]; HG3, 1 µM, day 10",381.873 Fold Change
same,Rep 1 Live Cells [Fold Change],"[1]; HG3, 1 µM, day 12",608.205 Fold Change
same,Rep 2 Live Cells [Fold Change],"[1]; HG3, 1 µM, day 12",463.207 Fold Change
same,Rep 3 Live Cells [Fold Change],"[1]; HG3, 1 µM, day 12",924.602 Fold Change
same,Rep 4 Live Cells [Fold Change],"[1]; HG3, 1 µM, day 12",1559.32 Fold Change
same,effect on growth potential (cell growth),"[1]; HG3, continuous exposure over 12 days",No changes in growth potential
same,Week 1 CD19+/B220dim,"[2]; Figure 7F, per mouse, week 1, in % (unit assumed)",11.48 and 18.62 and 27.54 and 11.19 and 10.12 and 10.58 and 15.76 and 16.07 and 10.74
same,Week 2 CD19+/B220dim,"[2]; Figure 7F, per mouse, week 2, in % (unit assumed)",15.67 and 34.32 and 54.88 and 26.83 and 24.62 and 12.62 and 27.46 and 30.9 and 21.08
same,Week 3 CD19+/B220dim,"[2]; Figure 7F, per mouse, week 3, in % (unit assumed)",36.29 and 68.26 and 63.64 and 49.66 and 47.13 and 26.83 and 51.14 and 52.04 and 25.17
same,Week 4 CD19+/B220dim,"[2]; Figure 7F, per mouse, week 4, in % (unit assumed)",56.34 and 75.81 and 60.54 and 71.56 and 63.33 and 48.69 and 69.46 and 71.25 and 53.76
same,Week 5 CD19+/B220dim,"[2]; Figure 7F, per mouse, week 5",50.26 and 79.76 and 83.28 and 82.04 and 59.53 and 59.67 and 70.88 and 81.41 and 79.52
same,Week 6 CD19+/B220dim,"[2]; Figure 7F, per mouse, week 6, in % (unit assumed)",79.53 and 74.33 and 84.12 and 75.35 and 79.18 and 56.6 and 82.56 and 74.54 and 89.39
same,Week 7 CD19+/B220dim,"[2]; Figure 7F, per mouse, week 7, in % (unit assumed)",80.7 and 87.13 and 89.6 and 89.4 and 86.59 and 66 and 85.98 and 83.54 and 93.2
same,Week 8 CD19+/B220dim,"[2]; Figure 7F, per mouse, week 8",84.94 and 92.1 and 90.67 and 85.36 and 88.33 and 44.29 and 85.8 and 89.46
same,Week 9 CD19+/B220dim,"[2]; Figure 7F, per mouse, week 9",85.98 and 79.2 and 88.88
same,Week 10 CD19+/B220dim,"[2]; Figure 7F, per mouse, week 10, in % (unit assumed)",88.79
same,Endpoint,"[2]; Figure 7G, survival endpoint indicator, per mouse",1
same,Days since enrollment,"[2]; Figure 7G, survival, per mouse",64 days and 50 days and 52 days and 51 days and 58 days and 45 days
same,Spleen weight,"[2]; Figure 7H, per mouse",1.7 g and 2.27 g and 2.35 g and 2.58 g and 2.18 g and 1.84 g and 2.11 g and 1.38 g
same,Median survival post-enrollment,"[2]; PRT382 10 mg/kg, EPZ015666 50 mg/kg, oral gavage 4 contiguous days per week",51 days
same,Spleen volume,"[2]; individual mice, Supplemental Figure 6F",1489.45 mm3 and 4749.69 mm3 and 2852.93 mm3 and 3279.99 mm3 and 2090.66 mm3 and 1726.14 mm3 and 2169.7 mm3 and 1234.53 mm3
same,global symmetric dimethyl arginine residues (immunoblot),[3],dose dependent global loss; also recorded: only a modest decrease
